According to patent US20080145313A1, “Compositions and Methods for the Treatment and Prevention of Neoplastic Disorders” (Genesis Research & Development Corporation Limited, priority 2006, published 2008):

Columns and labels:
A549 cells = assay: Growth inhibition of siRNA-transfected A549 cells, SYBR Green I DNA content; format: cell-based, human; details: A549 cells, 10 nM siRNA, DNA content 96 hours after transfection, transporter gene targets
How it was run: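 Growth read-out: cellular DNA quantified with SYBR Green I (485/535 nm) 96 h after transfection, cells frozen, thawed and lysed in PBS/1% Triton X-100, pH 7. Cells (A549, 5×10^3 cells/cm^2) received 10 nM siRNA by RNAiMAX; non-specific siRNA served as control; triplicate wells averaged.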

[1] = tested on: target transcript mRNA in A549 cells; assay: Level of mRNA of target transcript in A549 cells by quantitative RT-PCR (Tables 12 and 13); format: cell-based, human; details: 24 h post-transfection; for mRNA knockdown of transporter gene target transcript, 0.1 nM: 0.1 nM siRNA; for mRNA knockdown of transporter gene target transcript, 1 nM: 1 nM siRNA; for mRNA knockdown of transporter gene target transcript, 10 nM: 10 nM siRNA
How it was run: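 Target mRNA was measured by SYBR Green quantitative RT-PCR using random-primed cDNA, normalised to HPRT and Lamin. Samples came from A549 cells 24 h post-transfection with 0.1, 1.0 or 10 nM siRNA.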

SEQ ID NO: 4974: siRNA targeting ABCC5 (MRP5) (chain 1 AACCTCTTCCATTAGAAACAAACTC; chain 2 AACCUCUUCCAUUAGAAACAAACUC; chemistry not given here; one strand in two spellings)
Growth Inhibition in A549 cells by 10 nM siRNA (A549 cells): + (inhibits by at least 50%)
mRNA knockdown of transporter gene target transcript, 0.1 nM [1]: − (<50% mRNA knockdown)
mRNA knockdown of transporter gene target transcript, 1 nM [1]: + (50-70% mRNA knockdown)

SEQ ID NO: 4975: siRNA targeting ABCC5 (MRP5) (chain 1 ATTCTGAGCTGAGAATGCATGGAGG; chain 2 AUUCUGAGCUGAGAAUGCAUGGAGG; chemistry not given here; one strand in two spellings)
Growth Inhibition in A549 cells by 10 nM siRNA (A549 cells): ++ (inhibits by at least 75%)
mRNA knockdown of transporter gene target transcript, 0.1 nM [1]: − (<50% mRNA knockdown)
mRNA knockdown of transporter gene target transcript, 1 nM [1]: + (50-70% mRNA knockdown)

SEQ ID NO: 4900: siRNA targeting SLC2A12 (GLUT12) (chain 1 TTGAAATATAGGCAGAAAGAATGCC; chain 2 UUGAAAUAUAGGCAGAAAGAAUGCC; Antisense strand given in DNA and RNA notation, chemistry not given here; one strand in two spellings)
Growth Inhibition in A549 cells by 10 nM siRNA (A549 cells): − (no growth inhibition)
mRNA knockdown of transporter gene target transcript, 0.1 nM [1]: ++ (70-90% mRNA knockdown)
mRNA knockdown of transporter gene target transcript, 1 nM [1]: ++ (70-90% mRNA knockdown)

SEQ ID NO: 4921: siRNA targeting SLC9A1 (NHE1) (chain 1 ATCAGTGACGGAATGATTAACAGGG; chain 2 AUCAGUGACGGAAUGAUUAACAGGG; chemistry not given here; one strand in two spellings)
Growth Inhibition in A549 cells by 10 nM siRNA (A549 cells): − (no growth inhibition)
mRNA knockdown of transporter gene target transcript, 0.1 nM [1]: ++ (70-90% mRNA knockdown)
mRNA knockdown of transporter gene target transcript, 1 nM [1]: ++ (70-90% mRNA knockdown)

SEQ ID NO: 4901: siRNA targeting SLC7A5 (LAT1) (chain 1 AGCGTCATCACACACGTGAACACGA; chain 2 AGCGUCAUCACACACGUGAACACGA; Antisense strand given in DNA and RNA notation, chemistry not given here; one strand in two spellings)
Growth Inhibition in A549 cells by 10 nM siRNA (A549 cells): − (no growth inhibition)
mRNA knockdown of transporter gene target transcript, 0.1 nM [1]: ++ (70-90% mRNA knockdown)
mRNA knockdown of transporter gene target transcript, 1 nM [1]: ++ (70-90% mRNA knockdown)

SEQ ID NO: 4931: siRNA targeting SLC29A1 (ENT1) (chain 1 TTGAAGATGGCACTGAGAGAGTTCC; chain 2 UUGAAGAUGGCACUGAGAGAGUUCC; chemistry not given here; one strand in two spellings)
Growth Inhibition in A549 cells by 10 nM siRNA (A549 cells): ++ (inhibits by at least 75%)
mRNA knockdown of transporter gene target transcript, 0.1 nM [1]: ++ (70-90% mRNA knockdown)
mRNA knockdown of transporter gene target transcript, 1 nM [1]: ++ (70-90% mRNA knockdown)
mRNA knockdown of transporter gene target transcript, 10 nM [1]: +++ (>90% mRNA knockdown)

SEQ ID NO: 4936: siRNA targeting SLC29A2 (ENT2) (chain 1 AAGATCCAGGGTCAGAGCTACTTTC; chain 2 AAGAUCCAGGGUCAGAGCUACUUUC; chemistry not given here; one strand in two spellings)
Growth Inhibition in A549 cells by 10 nM siRNA (A549 cells): − (no growth inhibition)
mRNA knockdown of transporter gene target transcript, 0.1 nM [1]: − (<50% mRNA knockdown)
mRNA knockdown of transporter gene target transcript, 1 nM [1]: − (<50% mRNA knockdown)

SEQ ID NO: 4934: siRNA targeting SLC29A2 (ENT2) (chain 1 TGTGAAGACCAACACAAGGCACAGC; chain 2 UGUGAAGACCAACACAAGGCACAGC; chemistry not given here; one strand in two spellings)
Growth Inhibition in A549 cells by 10 nM siRNA (A549 cells): − (no growth inhibition)
mRNA knockdown of transporter gene target transcript, 0.1 nM [1]: + (50-70% mRNA knockdown)
mRNA knockdown of transporter gene target transcript, 1 nM [1]: − (<50% mRNA knockdown)

SEQ ID NO: 4905: siRNA targeting SLC7A11 (xCT) (chain 1 ATTATGAGGAGTTCCACCCAGACTC; chain 2 AUUAUGAGGAGUUCCACCCAGACUC; Antisense strand given in DNA and RNA notation, chemistry not given here; one strand in two spellings)
Growth Inhibition in A549 cells by 10 nM siRNA (A549 cells): ++ (inhibits by at least 75%)
mRNA knockdown of transporter gene target transcript, 0.1 nM [1]: ++ (70-90% mRNA knockdown)
mRNA knockdown of transporter gene target transcript, 1 nM [1]: ++ (70-90% mRNA knockdown)

SEQ ID NO: 4969: siRNA targeting ATP7B (chain 1 AAGGGAGCCACTTTGCTCTTGATGG; chain 2 AAGGGAGCCACUUUGCUCUUGAUGG; chemistry not given here; one strand in two spellings)
Growth Inhibition in A549 cells by 10 nM siRNA (A549 cells): − (no growth inhibition)
mRNA knockdown of transporter gene target transcript, 0.1 nM [1]: − (<50% mRNA knockdown)
mRNA knockdown of transporter gene target transcript, 1 nM [1]: ++ (70-90% mRNA knockdown)

SEQ ID NO: 4894: siRNA targeting SLC2A1 (GLUT1) (chain 1 TGACACTTCACCCACATACATGGGC; chain 2 UGACACUUCACCCACAUACAUGGGC; Antisense strand given in DNA and RNA notation, chemistry not given here; one strand in two spellings)
Growth Inhibition in A549 cells by 10 nM siRNA (A549 cells): − (no growth inhibition)
mRNA knockdown of transporter gene target transcript, 0.1 nM [1]: − (<50% mRNA knockdown)
mRNA knockdown of transporter gene target transcript, 1 nM [1]: ++ (70-90% mRNA knockdown)

SEQ ID NO: 4904: siRNA targeting SLC7A11 (xCT) (chain 1 AGATAAATCAGCCCAGCAACTGCCA; chain 2 AGAUAAAUCAGCCCAGCAACUGCCA; Antisense strand given in DNA and RNA notation, chemistry not given here; one strand in two spellings)
Growth Inhibition in A549 cells by 10 nM siRNA (A549 cells): − (no growth inhibition)
mRNA knockdown of transporter gene target transcript, 0.1 nM [1]: + (50-70% mRNA knockdown)
mRNA knockdown of transporter gene target transcript, 1 nM [1]: ++ (70-90% mRNA knockdown)

SEQ ID NO: 4962: siRNA targeting ATP6V1F (chain 1 TGGAGTCCTTGGCGGCGTCATATGG; chain 2 UGGAGUCCUUGGCGGCGUCAUAUGG; chemistry not given here; one strand in two spellings)
Growth Inhibition in A549 cells by 10 nM siRNA (A549 cells): − (no growth inhibition)
mRNA knockdown of transporter gene target transcript, 0.1 nM [1]: − (<50% mRNA knockdown)
mRNA knockdown of transporter gene target transcript, 1 nM [1]: + (50-70% mRNA knockdown)

SEQ ID NO: 4972: siRNA targeting ABCC4 (MRP4) (chain 1 AAATAGTTAAGGTCGAGGGCTGTCC; chain 2 AAAUAGUUAAGGUCGAGGGCUGUCC; chemistry not given here; one strand in two spellings)
Growth Inhibition in A549 cells by 10 nM siRNA (A549 cells): − (no growth inhibition)
mRNA knockdown of transporter gene target transcript, 0.1 nM [1]: − (<50% mRNA knockdown)
mRNA knockdown of transporter gene target transcript, 1 nM [1]: ++ (70-90% mRNA knockdown)

SEQ ID NO: 4947: siRNA targeting ATP2B4 (PMCA4) (chain 1 ATTACGCACAGCCTGATAATCCTGC; chain 2 AUUACGCACAGCCUGAUAAUCCUGC; chemistry not given here; one strand in two spellings)
Growth Inhibition in A549 cells by 10 nM siRNA (A549 cells): − (no growth inhibition)
mRNA knockdown of transporter gene target transcript, 0.1 nM [1]: ++ (70-90% mRNA knockdown)
mRNA knockdown of transporter gene target transcript, 1 nM [1]: ++ (70-90% mRNA knockdown)

SEQ ID NO: 4917: siRNA targeting SLC23A2 (SVCT2) (chain 1 AACAGCTGTAACTTGTACGCAGTCC; chain 2 AACAGCUGUAACUUGUACGCAGUCC; Antisense strand given in DNA and RNA notation, chemistry not given here; one strand in two spellings)
Growth Inhibition in A549 cells by 10 nM siRNA (A549 cells): − (no growth inhibition)
mRNA knockdown of transporter gene target transcript, 0.1 nM [1]: ++ (70-90% mRNA knockdown)
mRNA knockdown of transporter gene target transcript, 1 nM [1]: ++ (70-90% mRNA knockdown)

SEQ ID NO: 4971: siRNA targeting ABCC4 (MRP4) (chain 1 CAATAATGGTGTTCAATCTGTGTGC; chain 2 CAAUAAUGGUGUUCAAUCUGUGUGC; chemistry not given here; one strand in two spellings)
Growth Inhibition in A549 cells by 10 nM siRNA (A549 cells): − (no growth inhibition)
mRNA knockdown of transporter gene target transcript, 0.1 nM [1]: − (<50% mRNA knockdown)
mRNA knockdown of transporter gene target transcript, 1 nM [1]: ++ (70-90% mRNA knockdown)

SEQ ID NO: 4911: siRNA targeting SLC5A6 (SMVT1) (chain 1 AATGACGGAGCATAGAGCACAACTC; chain 2 AAUGACGGAGCAUAGAGCACAACUC; Antisense strand given in DNA and RNA notation, chemistry not given here; one strand in two spellings)
Growth Inhibition in A549 cells by 10 nM siRNA (A549 cells): − (no growth inhibition)
mRNA knockdown of transporter gene target transcript, 0.1 nM [1]: ++ (70-90% mRNA knockdown)
mRNA knockdown of transporter gene target transcript, 1 nM [1]: ++ (70-90% mRNA knockdown)

SEQ ID NO: 4922: siRNA targeting SLC16A1 (MCT1) (chain 1 ATAGGTAGTGGATAAAGGTGCTAGC; chain 2 AUAGGUAGUGGAUAAAGGUGCUAGC; chemistry not given here; one strand in two spellings)
Growth Inhibition in A549 cells by 10 nM siRNA (A549 cells): + (inhibits by at least 50%)
mRNA knockdown of transporter gene target transcript, 0.1 nM [1]: + (50-70% mRNA knockdown)
mRNA knockdown of transporter gene target transcript, 1 nM [1]: ++ (70-90% mRNA knockdown)
mRNA knockdown of transporter gene target transcript, 10 nM [1]: +++ (>90% mRNA knockdown)
